Here are results for 21 compounds from patent US8030336B2, “Nicotinamide-based kinase inhibitors” (YM Biosciences Australia Pty Ltd, priority 2002, dated 2011).

Common to all, as to assay type: biochemical
One assay addresses T1, human JAK2 (Homo sapiens, UniProt O60674).
T1 construct: The kinase domain of human JAK2 was amplified from U937mRNA; His tag (from the pFastBac HTc vector) (N); made in house; host or cells: baculovirus; Sf9 for virus, High Five insect cells for production
In words: JAK2 kinase assay (ELISA or Alphascreen). To be noted: read-out: Jak2 inhibition of enzyme activity. From the text:
The kinase domain of human JAK2 was amplified from U937mRNA using the polymerase chain reaction with the following primers: […]
JAK2 PCR products were doped into the pFastBac HTc expression vector (Gibco) via the Sal I and Not I sites. The JAK2 plasmid was than transformed into competent DH10Bac cells (Gibco), and the recombinant baculovirus produced prepared for transfection into Sf9 insect cells.
(§1) Baculovirus preparations from each of the JAK family members were infected into five liters of High Five cells (Invitrogen) grown in High Five serum free medium (Invitrogen) to a cell density of approximately 1-2×10^6 cells/ml. Cells are infected with virus at a MOI of 0.8-3.0. Cells were harvested and lysed. JAK kinase domains were purified by affinity chromatography on a Probond (Invitrogen) nickel chelate affinity column.
(§2) Kinase assays were performed in a 96 well capture-based ELISA assay or in 384 well Optiplates (Packard) using an Alphascreen Protein Tyrosine Kinase kit. In either case using approximately 1.5 μg of affinity purified PTK domain in the presence of 50 mM HEPES, pH 7.5, 10 mM MgCl2, 150 mM NaCl and 10 μM-1 mM ATP. The biotinylated substrate biotin-EGPWLEEEEEAYGWMDF-NH2 (SEQ ID NO:9) (final concentration 5 μM) was used as substrate. In the ELISA assay tyrosine phosphorylation was quantitated following transfer to an avidin coated ELISA plate using peroxidase-linked anti-phosphotyrosine antibody PY20. In the Alphascreen assay, Alphascreen phosphotyrosine acceptor beads followed by streptavidin donor beads were added under subdued light. The ELISA plates were read on a BMG Fluorostar, the Alphascreen plates were read on a Packard Fusion Alpha. Inhibitors were added to the assays fifteen minutes prior to the addition of ATP. Inhibitors were added in aqueous […] concentrations never exceeding 1%.
For orientation: In an ELISA, binding on a coated surface is turned into a signal by an enzyme label.

Another assay has as its target T2, abl (Homo sapiens, UniProt P00519).
T2 sequence (P00519 242-493 limits assumed): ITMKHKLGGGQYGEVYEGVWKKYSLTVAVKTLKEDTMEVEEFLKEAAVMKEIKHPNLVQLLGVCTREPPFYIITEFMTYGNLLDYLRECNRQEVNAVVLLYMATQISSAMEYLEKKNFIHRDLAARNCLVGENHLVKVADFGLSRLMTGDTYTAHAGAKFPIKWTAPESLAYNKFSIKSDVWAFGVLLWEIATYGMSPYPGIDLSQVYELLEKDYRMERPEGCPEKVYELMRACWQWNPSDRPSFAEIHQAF
In words: abl kinase assay (ELISA or Alphascreen). To be noted: read-out: abl inhibition of enzyme activity. On the procedure:
as §2

The next assay has as its target fes (Homo sapiens, UniProt P07332). Description: fes kinase assay (ELISA or Alphascreen). To be noted: read-out: fes inhibition of enzyme activity. On the procedure:
as §2

The target of the next assay is hck (Homo sapiens, UniProt P08631). Description: hck kinase assay (ELISA or Alphascreen). To be noted: read-out: hck inhibition of enzyme activity. On the procedure: as §2
Another assay deals with T3, Zap70 (Homo sapiens, UniProt P43403).
T3 sequence (P43403 338-600 limits assumed): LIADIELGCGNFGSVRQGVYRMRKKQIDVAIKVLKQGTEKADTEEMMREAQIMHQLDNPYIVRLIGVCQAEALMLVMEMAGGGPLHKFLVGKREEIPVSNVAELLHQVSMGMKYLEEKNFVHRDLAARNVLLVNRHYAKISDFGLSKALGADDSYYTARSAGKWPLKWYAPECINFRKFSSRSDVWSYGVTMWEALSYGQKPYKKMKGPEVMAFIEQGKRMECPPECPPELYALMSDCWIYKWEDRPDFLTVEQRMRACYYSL
Description: Zap70 kinase assay (ELISA or Alphascreen). To be noted: read-out: Zap70 inhibition of enzyme activity. On the procedure:
as §2

A further assay has as its target T4, human JAK3 (Homo sapiens, UniProt P52333).
T4 construct: The kinase domain of human JAK3 was amplified from U937mRNA; His tag (from the pFastBac HTb vector) (N); made in house; host or cells: baculovirus; Sf9 for virus, High Five insect cells for production
Description: JAK3 kinase assay (ELISA or Alphascreen). To be noted: read-out: Jak3 inhibition of enzyme activity.
Text: The kinase domain of human JAK3 was amplified from U937mRNA using the polymerase chain reaction with the following primers: […]
JAK3 PCR products were cloned into the pFastBac HTb expression vector (Gibco) via the Xho I and Kpn I sites. The JAK3 plasmid was then transformed into competent DH10Bac cells (Gibco), and the recombinant baculovirus produced prepared for transfection into Sf9 insect cells.
as §1, §2

The next assay addresses T5, fms (Homo sapiens, UniProt P07333).
T5 sequence (P07333 582-910 limits assumed): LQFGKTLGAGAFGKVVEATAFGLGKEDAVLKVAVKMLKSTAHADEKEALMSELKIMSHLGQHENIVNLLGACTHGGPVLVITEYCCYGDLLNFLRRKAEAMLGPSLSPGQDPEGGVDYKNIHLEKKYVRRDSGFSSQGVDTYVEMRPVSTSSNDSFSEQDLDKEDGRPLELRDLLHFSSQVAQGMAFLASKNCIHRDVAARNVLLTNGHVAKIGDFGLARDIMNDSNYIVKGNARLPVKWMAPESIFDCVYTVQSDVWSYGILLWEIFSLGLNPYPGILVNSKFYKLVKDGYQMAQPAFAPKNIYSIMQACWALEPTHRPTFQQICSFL
In words: fms kinase assay (ELISA or Alphascreen). To be noted: read-out: fms inhibition of enzyme activity. On the procedure: as §2

T1 sequence (O60674 849-1124 limits assumed): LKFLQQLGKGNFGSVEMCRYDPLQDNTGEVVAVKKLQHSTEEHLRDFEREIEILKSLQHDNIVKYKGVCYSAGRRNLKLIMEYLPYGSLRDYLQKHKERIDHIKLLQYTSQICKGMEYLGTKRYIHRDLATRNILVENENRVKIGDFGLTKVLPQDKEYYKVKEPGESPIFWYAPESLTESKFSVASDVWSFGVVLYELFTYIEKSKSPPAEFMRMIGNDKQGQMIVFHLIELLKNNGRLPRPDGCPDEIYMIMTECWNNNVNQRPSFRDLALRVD
Chain of hck (P08631 262-515 limits assumed, species assumed): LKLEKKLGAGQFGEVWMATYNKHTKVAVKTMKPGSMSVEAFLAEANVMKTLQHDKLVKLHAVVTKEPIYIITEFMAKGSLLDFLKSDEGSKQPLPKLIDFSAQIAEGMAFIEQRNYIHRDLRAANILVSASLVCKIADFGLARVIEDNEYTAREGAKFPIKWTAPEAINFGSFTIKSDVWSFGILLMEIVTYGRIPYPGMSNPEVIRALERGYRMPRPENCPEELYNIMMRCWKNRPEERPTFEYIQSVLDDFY
Chain of fes (P07332 561-822 limits assumed, species assumed): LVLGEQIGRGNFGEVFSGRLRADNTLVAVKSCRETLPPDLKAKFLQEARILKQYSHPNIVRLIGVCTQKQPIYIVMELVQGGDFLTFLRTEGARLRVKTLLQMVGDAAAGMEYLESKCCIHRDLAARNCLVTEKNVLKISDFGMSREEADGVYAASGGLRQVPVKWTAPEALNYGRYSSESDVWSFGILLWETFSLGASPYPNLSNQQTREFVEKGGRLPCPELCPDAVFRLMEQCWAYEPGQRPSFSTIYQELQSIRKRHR
T4 sequence (P52333 822-1111 limits assumed): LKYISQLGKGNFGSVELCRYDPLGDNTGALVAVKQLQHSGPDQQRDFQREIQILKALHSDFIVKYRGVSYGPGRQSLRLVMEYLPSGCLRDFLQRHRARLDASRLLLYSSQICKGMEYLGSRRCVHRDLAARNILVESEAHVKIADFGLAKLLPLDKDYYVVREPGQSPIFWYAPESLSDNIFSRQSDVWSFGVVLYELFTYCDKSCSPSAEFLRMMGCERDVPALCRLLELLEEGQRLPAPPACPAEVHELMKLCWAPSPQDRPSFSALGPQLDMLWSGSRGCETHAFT

One may read the inhibition as the change of the read-out against control, counted positive when it falls. For `C[C@@H](NC(=O)c1cncc(-c2ccc(O)cc2)c1)c1ccccc1`, the inhibition at 10 µM on human JAK2, at abl, on fes, on hck and on Zap70 was less than 50% each time.

With `O=C(NCc1cccc(F)c1)c1cncc(-c2ccc(O)cc2)c1`, the inhibition at 10 µM on human JAK3, on abl, on fes, at hck and at Zap70 was less than 50% each time.

For the compound `O=C(NCCc1ccccc1)c1cncc(-c2ccc(O)cc2)c1`, the inhibition at 10 µM at human JAK2, on human JAK3, at fes, at fms, on hck and at Zap70 was less than 50% throughout.

On to `CN(Cc1ccccc1)C(=O)c1cncc(-c2ccc(O)cc2)c1`, for which the inhibition at 10 µM at human JAK2, on human JAK3, at fes, at fms, at hck and on Zap70 was less than 50% each time.

For the compound `COc1ccc(NC(=O)c2cncc(-c3ccc(O)cc3)c2)c(OC)c1`, the inhibition at 10 µM on human JAK2, at human JAK3, on abl, on hck and on Zap70 was less than 50% in each case.

As for `Cc1ccccc1NC(=O)c1cncc(-c2ccc(O)cc2)c1`, the inhibition at 10 µM at human JAK2 was less than 50%; at human JAK3, less than 50%; at fes, less than 50%; on fms it was no less than 50%; on hck it was no less than 50%; at Zap70, less than 50%.

Regarding `Cc1cc(-c2cncc(C(=O)N[C@H](C)c3ccccc3)c2)cc(C)c1O`, the inhibition at 10 µM at human JAK2, at abl, on fes, at hck and at Zap70 was less than 50% throughout.

As for `COc1cc(CNC(=O)c2cncc(-c3cc(C)c(O)c(C)c3)c2)cc(OC)c1`, the inhibition at 10 µM is less than 50% at human JAK2; less than 50% on human JAK3; less than 50% on fes; no less than 50% at fms; less than 50% at hck; less than 50% at Zap70.

As to `Cc1cc(-c2cncc(C(=O)NC(C)CCc3ccccc3)c2)cc(C)c1O` (centres unmarked), the inhibition at 10 µM at human JAK2, at human JAK3, at fes, on fms, on hck and on Zap70 was less than 50% in each case.

Regarding `COc1cc(-c2cncc(C(=O)NC(C)C)c2)c(Cl)c(OC)c1OC`, the inhibition at 10 µM at human JAK2, on human JAK3, at fes, at fms, at hck and on Zap70 was less than 50% each time.

Turning to `COc1cc(-c2cncc(C(=O)NCCc3ccccc3)c2)c(Cl)c(OC)c1OC`, the inhibition at 10 µM at human JAK2, at human JAK3, on fes, at fms, on hck and on Zap70 was less than 50% in each case.

With `COc1cc(-c2cncc(C(=O)Nc3ccc(F)cc3C)c2)c(Cl)c(OC)c1OC`, the inhibition at 10 µM is less than 50% at human JAK2; less than 50% on human JAK3; less than 50% at fes; no less than 50% on fms; no less than 50% on hck; less than 50% on Zap70.

Turning to `O=C(NCCO)c1cncc(-c2ccc3c(c2)OCO3)c1`, the inhibition at 10 µM at human JAK2, at human JAK3, on abl, on hck and on Zap70 was less than 50% each time.

With `COc1cc(CNC(=O)c2cncc(-c3ccc4c(c3)OCO4)c2)cc(OC)c1`, the inhibition at 10 µM at human JAK2, on abl, at fes, on hck and at Zap70 was less than 50% each time.

Consider `O=C(NCc1cccc(F)c1)c1cncc(-c2ccc3c(c2)OCO3)c1`, for which the inhibition at 10 µM at human JAK2, at human JAK3, on abl, at fes, at hck and at Zap70 was less than 50% throughout.

In the case of `O=C(NCCc1ccccc1)c1cncc(-c2ccc3c(c2)OCO3)c1`, the inhibition at 10 µM on human JAK2, on human JAK3, at abl, on fes, at hck and on Zap70 was less than 50% throughout.

Consider `Cc1ccccc1NC(=O)c1cncc(-c2ccc3c(c2)OCO3)c1`, for which the inhibition at 10 µM at human JAK2 was less than 50%; on human JAK3 it was less than 50%; on abl, less than 50%; at fes, less than 50%; at hck, no less than 50%; on Zap70, less than 50%.

Take `O=C(NCc1ccc(N2CCOCC2)cc1)c1cncc(-c2cccs2)c1`: the inhibition at 10 µM at human JAK2, at abl, at fes, on hck and on Zap70 was less than 50% throughout.

Turning to `C[C@@H](NC(=O)c1cncc(-c2cccs2)c1)c1ccccc1`, the inhibition at 10 µM on human JAK2, on human JAK3, on abl, at fes, on hck and at Zap70 was less than 50% each time.

As for `O=C(NCCc1ccccc1)c1cncc(-c2cccs2)c1`, the inhibition at 10 µM at human JAK2, at human JAK3, at abl, at fes, at hck and at Zap70 was less than 50% in each case.

As to `COc1cc(-c2cncc(C(=O)Nc3ccccc3C)c2)ccc1O`, the inhibition at 10 µM on human JAK2 is less than 50%; at human JAK3 it was less than 50%; on fes, less than 50%; at fms, less than 50%; on hck it was no less than 50%; on Zap70, less than 50%.
